Measured values from US9663508B2, “Biaryl acyl-sulfonamide compounds as sodium channel inhibitors” (AMGEN INC., priority 2013, dated 2017).
Read-outs that look alike come from different tables or passages of the source.

Key:
human Nav 1.5 = human Nav 1.5 (Homo sapiens (Human), UniProt Q14524); experiment: Nav 1.5 IonWorks Quattro (IWQ) in vitro assay; assay type: cell-based
Description: Nav 1.7 or Nav 1.5 Ion Works Quattro (IWQ) In Vitro Assay
HEK 293 Cells stably transfected with either human Nay 1.7 or human Nay 1.5 were recorded in population patch-clamp mode with the IonWorks® Quattro automated electrophysiology system in accordance with the manufacturer's specifications (Molecular Devices, LLC, Sunnyvale, Calif.). Sodium channel currents were measured in response to a train of depolarizations that induced successively greater inactivation.
Cells were held at −110 mV for three seconds (Nav 1.7) or half a second (Nav 1.5) from a holding voltage of −15 mV, then put through a series of 26 pulses of 150 msec duration to −20 mV at a frequency of 5 Hz. Cells were then left unclamped for a period of 3 to 8 minutes while a single concentration of test compound was added. Cells were then reclamped and put through the same voltage protocol. Current at the end of the 26th pulse to −20 mV was subtracted from the peak current evoked by the 26th pulse to −20 mV to correct for leak current. Percent block was calculated for each concentration in duplicate, and IC50 curves were fitted to percent block as a function of concentration.

human Nav1.7 = human Nav1.7 (Homo sapiens (Human), UniProt Q15858); experiment: Nav 1.7 in vitro PatchXpress (PX) assay; assay type: cell-based
human Nav1.7, sequence (Q15858 whole entry): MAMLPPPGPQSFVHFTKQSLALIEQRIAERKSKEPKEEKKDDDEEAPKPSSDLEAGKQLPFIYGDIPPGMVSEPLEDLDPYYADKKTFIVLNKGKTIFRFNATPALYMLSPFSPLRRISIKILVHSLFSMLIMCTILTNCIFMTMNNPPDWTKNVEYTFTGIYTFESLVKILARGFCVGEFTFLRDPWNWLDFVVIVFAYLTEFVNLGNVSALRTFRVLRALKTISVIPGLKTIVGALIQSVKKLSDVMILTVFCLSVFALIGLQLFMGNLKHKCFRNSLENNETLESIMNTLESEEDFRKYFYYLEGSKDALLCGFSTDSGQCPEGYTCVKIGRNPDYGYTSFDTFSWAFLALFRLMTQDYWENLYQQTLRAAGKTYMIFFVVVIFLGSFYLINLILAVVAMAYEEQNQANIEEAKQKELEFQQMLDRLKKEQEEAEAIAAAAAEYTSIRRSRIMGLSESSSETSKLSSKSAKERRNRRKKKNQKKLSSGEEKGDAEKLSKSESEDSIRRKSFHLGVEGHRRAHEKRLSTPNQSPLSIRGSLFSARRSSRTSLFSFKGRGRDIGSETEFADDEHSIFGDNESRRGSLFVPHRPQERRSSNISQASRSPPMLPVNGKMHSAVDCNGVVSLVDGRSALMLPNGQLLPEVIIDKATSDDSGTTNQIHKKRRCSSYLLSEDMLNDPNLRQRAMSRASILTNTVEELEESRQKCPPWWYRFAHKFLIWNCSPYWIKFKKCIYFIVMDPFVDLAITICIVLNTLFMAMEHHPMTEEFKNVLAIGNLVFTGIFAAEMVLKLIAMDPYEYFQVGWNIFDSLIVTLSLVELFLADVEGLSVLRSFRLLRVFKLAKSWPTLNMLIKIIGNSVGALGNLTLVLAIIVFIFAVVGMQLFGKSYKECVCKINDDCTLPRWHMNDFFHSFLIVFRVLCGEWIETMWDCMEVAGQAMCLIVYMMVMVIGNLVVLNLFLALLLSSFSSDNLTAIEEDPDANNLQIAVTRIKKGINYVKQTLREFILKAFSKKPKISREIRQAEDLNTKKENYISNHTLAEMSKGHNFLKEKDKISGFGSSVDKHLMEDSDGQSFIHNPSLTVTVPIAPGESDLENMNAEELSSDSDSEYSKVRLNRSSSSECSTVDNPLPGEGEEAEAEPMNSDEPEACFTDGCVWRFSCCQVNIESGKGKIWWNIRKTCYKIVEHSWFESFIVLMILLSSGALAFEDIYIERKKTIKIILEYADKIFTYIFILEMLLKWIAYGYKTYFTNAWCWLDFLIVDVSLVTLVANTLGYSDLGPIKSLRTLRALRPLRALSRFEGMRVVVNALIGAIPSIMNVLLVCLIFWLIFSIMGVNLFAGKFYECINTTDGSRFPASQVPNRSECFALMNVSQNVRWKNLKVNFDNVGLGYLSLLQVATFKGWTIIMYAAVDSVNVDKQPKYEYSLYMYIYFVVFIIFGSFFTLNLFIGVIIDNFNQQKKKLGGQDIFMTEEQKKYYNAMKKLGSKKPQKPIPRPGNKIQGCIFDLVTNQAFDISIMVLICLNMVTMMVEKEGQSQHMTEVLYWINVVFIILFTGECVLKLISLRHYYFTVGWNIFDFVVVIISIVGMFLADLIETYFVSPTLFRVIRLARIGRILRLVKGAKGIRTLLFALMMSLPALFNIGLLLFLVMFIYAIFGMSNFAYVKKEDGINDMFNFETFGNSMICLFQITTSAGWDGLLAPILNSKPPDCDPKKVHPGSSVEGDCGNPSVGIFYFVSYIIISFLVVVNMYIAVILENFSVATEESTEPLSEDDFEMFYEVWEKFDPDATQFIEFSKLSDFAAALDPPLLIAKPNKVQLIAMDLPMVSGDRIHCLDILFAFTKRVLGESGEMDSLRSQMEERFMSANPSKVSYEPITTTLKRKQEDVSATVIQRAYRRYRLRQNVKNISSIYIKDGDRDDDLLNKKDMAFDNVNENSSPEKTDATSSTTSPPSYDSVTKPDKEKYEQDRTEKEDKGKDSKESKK

[1] = in-vitro Nav 1.5 IWQ data, read-out: NAV 1.5 IWQ (IC50)

human Nav 1.5, sequence (Q14524 whole entry): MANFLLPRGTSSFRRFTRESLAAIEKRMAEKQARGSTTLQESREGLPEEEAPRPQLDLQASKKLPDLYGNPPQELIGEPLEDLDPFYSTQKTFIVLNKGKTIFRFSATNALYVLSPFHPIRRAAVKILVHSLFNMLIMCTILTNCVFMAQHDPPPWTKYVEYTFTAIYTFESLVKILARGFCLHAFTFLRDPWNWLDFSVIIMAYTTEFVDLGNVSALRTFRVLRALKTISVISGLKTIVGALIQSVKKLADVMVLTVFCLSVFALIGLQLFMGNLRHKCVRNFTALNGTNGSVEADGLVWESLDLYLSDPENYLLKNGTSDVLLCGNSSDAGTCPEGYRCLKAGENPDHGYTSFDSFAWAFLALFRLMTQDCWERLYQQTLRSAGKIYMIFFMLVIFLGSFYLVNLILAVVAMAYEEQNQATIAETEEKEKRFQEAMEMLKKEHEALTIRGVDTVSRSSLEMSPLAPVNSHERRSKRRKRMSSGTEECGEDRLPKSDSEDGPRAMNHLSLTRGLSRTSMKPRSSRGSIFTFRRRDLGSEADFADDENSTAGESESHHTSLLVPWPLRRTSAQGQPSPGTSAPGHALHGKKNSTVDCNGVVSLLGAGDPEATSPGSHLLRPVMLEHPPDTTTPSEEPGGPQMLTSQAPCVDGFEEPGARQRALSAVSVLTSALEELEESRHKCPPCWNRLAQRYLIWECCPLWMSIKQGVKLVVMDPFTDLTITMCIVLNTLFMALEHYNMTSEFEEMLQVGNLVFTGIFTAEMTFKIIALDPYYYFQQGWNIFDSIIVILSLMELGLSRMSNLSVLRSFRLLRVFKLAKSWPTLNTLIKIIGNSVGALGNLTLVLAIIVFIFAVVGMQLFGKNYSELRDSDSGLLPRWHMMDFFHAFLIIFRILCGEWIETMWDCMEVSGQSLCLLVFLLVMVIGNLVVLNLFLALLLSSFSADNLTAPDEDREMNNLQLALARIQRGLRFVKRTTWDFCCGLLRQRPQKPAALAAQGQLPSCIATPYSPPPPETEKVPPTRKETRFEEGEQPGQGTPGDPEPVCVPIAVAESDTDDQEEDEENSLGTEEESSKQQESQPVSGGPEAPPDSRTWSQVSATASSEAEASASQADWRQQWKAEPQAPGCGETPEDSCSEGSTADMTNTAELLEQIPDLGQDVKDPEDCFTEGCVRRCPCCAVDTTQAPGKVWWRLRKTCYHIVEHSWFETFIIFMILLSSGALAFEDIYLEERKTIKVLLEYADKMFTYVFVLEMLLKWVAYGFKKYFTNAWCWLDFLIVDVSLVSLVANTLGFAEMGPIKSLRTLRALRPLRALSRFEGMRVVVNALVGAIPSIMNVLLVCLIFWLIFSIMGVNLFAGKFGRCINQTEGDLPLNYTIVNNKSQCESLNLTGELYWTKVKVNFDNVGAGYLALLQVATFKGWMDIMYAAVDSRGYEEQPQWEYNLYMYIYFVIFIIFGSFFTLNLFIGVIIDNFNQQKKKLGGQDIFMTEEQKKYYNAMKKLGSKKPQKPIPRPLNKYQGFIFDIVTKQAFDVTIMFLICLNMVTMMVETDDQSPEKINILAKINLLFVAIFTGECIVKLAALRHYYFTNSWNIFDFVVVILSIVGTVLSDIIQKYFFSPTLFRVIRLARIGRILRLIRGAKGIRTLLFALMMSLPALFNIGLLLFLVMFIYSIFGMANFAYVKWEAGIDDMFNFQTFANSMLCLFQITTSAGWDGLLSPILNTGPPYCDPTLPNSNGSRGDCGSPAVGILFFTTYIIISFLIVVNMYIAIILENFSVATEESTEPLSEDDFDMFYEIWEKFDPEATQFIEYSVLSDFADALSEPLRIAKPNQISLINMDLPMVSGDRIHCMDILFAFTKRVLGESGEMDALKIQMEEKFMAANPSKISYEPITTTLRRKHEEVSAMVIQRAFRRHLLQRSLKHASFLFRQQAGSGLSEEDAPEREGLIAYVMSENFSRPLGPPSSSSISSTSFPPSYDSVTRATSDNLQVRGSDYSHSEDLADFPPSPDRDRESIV

Compound | IC50 (human Nav 1.5; read-out: NAV 1.5 IWQ IC50) [nM] | IC50 (human Nav1.7) [nM] | IC50 (human Nav 1.5; [1]) [nM] | IC50 (human Nav1.7; in-vitro Nav 1.7 PX data) [nM]
C[C@@](Oc1ncc(-c2cc(F)c(C(=O)NS(C)(=O)=O)cc2F)cc1Cl)(c1ccccc1)C(F)(F)F [Example 566, 4-(5-chloro-6-((1R)-2,2,2-trifluoro-1-methyl-1-phenylethoxy)-3-pyridinyl)-2,5-difluoro-N-(methylsulfonyl)benzamide, 4-(5-chloro-6-((1S)-2,2,2-trifluoro-1-methyl-1-phenylethoxy)-3-pyridinyl)-2,5-difluoro-N-(methylsulfonyl)benzamide] | > 3000 | 73.1 | – | –
Cc1cc(C(=O)NS(C)(=O)=O)c(F)cc1-c1cnc(Oc2cc(F)cc(F)c2F)c(Cl)c1 [Example 629, 4-(5-chloro-6-(2,3,5-trifluorophenoxy)-3-pyridinyl)-2-fluoro-5-methyl-N-(methylsulfonyl)benzamide] | > 3000 | 57.8 | – | –
COc1ccccc1C[C@@H](C)Oc1ncc(-c2cc(F)c(C(=O)NS(C)(=O)=O)cc2C)cc1Cl [Example 649, 4-(5-chloro-6-((1R)-2-(2-methoxyphenyl)-1-methylethoxy)-3-pyridinyl)-2-fluoro-5-methyl-N-(methylsulfonyl)benzamide, 4-(5-chloro-6-((1S)-2-(2-methoxyphenyl)-1-methylethoxy)-3-pyridinyl)-2-fluoro-5-methyl-N-(methylsulfonyl)benzamide] | > 3000 | 92.9 | – | –
CCOc1ccc(Oc2ncc(-c3cc(F)c(C(=O)NS(C)(=O)=O)cc3C)cc2Cl)cc1F [Example 645, 4-(5-chloro-6-(4-ethoxy-3-fluorophenoxy)-3-pyridinyl)-2-fluoro-5-methyl-N-(methylsulfonyl)benzamide] | > 3000 | 97.3 | – | –
COc1cc(C(=O)NS(C)(=O)=O)ccc1-c1cnc(Oc2cc(Cl)cc(Cl)c2)c(C)c1 [Example 841, 4-(6-(3,5-Dichlorophenoxy)-5-Methyl-3-Pyridinyl)-3-Methoxy-N-(Methylsulfonyl)Benzamide] | – | – | > 3000 | 82.8
Cc1cc(C(=O)NS(C)(=O)=O)c(F)cc1-c1cnc(N2CCC[C@@H]2c2ccc(Cl)c(Cl)c2)c(Cl)c1 [Example 658, 4-(5-chloro-6-((2R)-2-(3,4-dichlorophenyl)-1-pyrrolidinyl)-3-pyridinyl)-2-fluoro-5-methyl-N-(methylsulfonyl)benzamide, 4-(5-chloro-6-((2S)-2-(3,4-dichlorophenyl)-1-pyrrolidinyl)-3-pyridinyl)-2-fluoro-5-methyl-N-(methylsulfonyl)benzamide] | > 3000 | 89.9 | – | –
COc1cc(C(=O)NS(C)(=O)=O)c(F)cc1-c1cnc(Oc2ccc(C)c(F)c2)c(Cl)c1 [Example 698, 4-(5-chloro-6-(3-fluoro-4-methylphenoxy)-3-pyridinyl)-2-fluoro-5-methoxy-N-(methylsulfonyl)benzamide] | 6050 | 59 | – | –
Cc1cc(C(=O)NS(C)(=O)=O)c(F)cc1-c1cnc(N2CCC[C@H]2c2ccccc2)c(Cl)c1 [Example 646, 4-(5-chloro-6-((2S)-2-phenyl-1-pyrrolidinyl)-3-pyridinyl)-2-fluoro-5-methyl-N-(methylsulfonyl)benzamide] | > 3000 | 99.9 | – | –
Cc1cc(C(=O)NS(C)(=O)=O)c(F)cc1-c1cnc(OCc2cccc3ncccc23)c(Cl)c1 [Example 654, 4-(5-chloro-6-(5-quinolinylmethoxy)-3-pyridinyl)-2-fluoro-5-methyl-N-(methylsulfonyl)benzamide] | > 3000 | 90.4 | – | –
CNS(=O)(=O)NC(=O)c1ccc(-c2cnc(Oc3cc(Cl)cc(Cl)c3)c(Cl)c2)c(OC)c1 [Example 772, 4-(5-Chloro-6-(3,5-Dichlorophenoxy)Pyridin-3-yl)-3-Methoxy-N—(N-Methylsulfamoyl)Benzamide] | – | – | > 3000 | 80.7
Cc1cc(C(=O)NS(C)(=O)=O)c(F)cc1-c1cnc(Oc2c(Cl)cc(F)cc2Cl)c(Cl)c1 [Example 644, 4-(5-chloro-6-(2,6-dichloro-4-fluorophenoxy)-3-pyridinyl)-2-fluoro-5-methyl-N-(methylsulfonyl)benzamide] | > 3000 | 82.8 | – | –
Cc1cc(C(=O)NS(C)(=O)=O)c(F)cc1-c1cnc(Oc2c(C)cc(Cl)cc2C)c(Cl)c1 [Example 669, 4-(5-chloro-6-(4-chloro-2,6-dimethylphenoxy)-3-pyridinyl)-2-fluoro-5-methyl-N-(methylsulfonyl)benzamide] | 3610 | 66 | – | –
Cc1cc(C(=O)NS(C)(=O)=O)c(F)cc1-c1cnc(OCCC(C)C)c(Cl)c1 [Example 637, 4-(5-chloro-6-(3-methylbutoxy)-3-pyridinyl)-2-fluoro-5-methyl-N-(methylsulfonyl)benzamide] | > 3000 | 87.7 | – | –
